Results published in US9433595B2, “Phytoestrogenic compositions for preventing or treating symptoms associated with menopause” (Natural Endotech Co., Ltd., priority 2008, dated 2016).

Tested on: SaOS-2 cells
Experiment: Estrogen-specific ALP (alkaline phosphatase) induction in SaOS-2 osteoblast cells
Type: cell-based
Details: conclusion drawn from ALP induction in SaOS-2 cells
Experimental: To verify the effect of the compound of the present invention, non-reproductive tract target tissue response was carried out for measuring estrogenecity. […]
In this regard, the estrogenic activity of the compounds of the experimental groups as described above in the Example 1 was analyzed using SaOS-2 cells in this study.
For experiments, SaOS-2 cell line was purchased from Korean Type Culture Collection (KTCC). […] Thereafter, 50 μl of cell lysis buffer (100 mM Tris, 100 mM NaCl, 1 mM EDTA) was added to the culture media of each well and then, 150 μl of 30 mM p-nitrophenyl phosphate (Merk, Germany) was thoroughly mixed with shaking, followed by measuring the absorbance at 405 nm for 10 min at an interval of 50 sec. ALP induction was calculated as follows: % induction=[(Slopesample)/(Slope17β-estradiol)]×100. […]

Compound	estrogenic activity
O=C(O)/C=C/c1ccccc1 [cinnamic acid]	remarkable estrogenic activity
COC(=O)C1=CO[C@@H](O[C@H]2O[C@@H](CO)[C@H](O)[C@@H](O)[C@@H]2O)C2C1[C@H](O)C[C@]2(C)O (some centres unmarked) [shanzhiside methylester]	remarkable estrogenic activity
